We go through two molecules from US12441693B2, “Targeting STAT sumoylation to enhance immune responses” (THE GEORGE WASHINGTON UNIVERSITY, priority 2018, dated 2025).

One series has as its system K562. In words: NK cell killing of K562 cells, E:T 1:1, 4 hours. The following applies: NK cells pretreated with single agent, E:T 1:1, 4 hours. Type of series: cell-based, human. The protocol: It was therefore hypothesized that inhibiting STAT SUMOylation may enhance the ability of IL-15 stimulated NK cells to clear the HIV latent reservoir. To test the hypothesis, NK cells were treated with DMSO, IL-15-stimulated, treated with HODHBt or IL-15-stimulated and treated with HODHBt. Cells were then tested in their ability to kill the erythroleukemia cell line K562, which lack MHC-I. In an experiment, the NK cells from two donors were co-cultured with K562 at an E:T ratio of 1:1 for 4 hours (FIG. 19A). NK cells were pretreated with IL-15, HODHBt, or a combination of both.

Another series has as its system NK cells. Conditions: single agent, 48 hours. The protocol:
To determine if STAT SUMOylation increases Gzm B expression in NK cells, isolated human NK cells were analyzed after a 3-day incubation with either IL-2, IL-15, HODHBt, IL-2+IL-15, HODHBt+IL-2, HODHBt+IL-15, or HODHBt+IL-2+IL-15.
To further characterize the effects of STAT SUMOylation inhibition in NK cell function, primary human NK cells were isolated and cultured with IL-15 in the presence or absence of HODHBt. 48 hours later, cells were phenotyped by flow cytometry.
To characterize the induction of other proteins known to be important for the cytolytic activity of NK cells, primary human NK cells were isolated from 6 male and 6 female donors and cultured with IL-15 in the presence or absence of HODHBt. 48 hours later, levels of Granzyme A (FIG. 18A), Perforin (FIG. 18B), Granulysin (FIG. 18C), TRAIL (FIG. 18D) and Fas ligand (FASL) (FIG. 18E) were analyzed by flow cytometry.
Antibody-dependent cell-mediated cytotoxicity (ADCC) is mediated by the recognition of an antibody bound to a cell through an Fc receptor present in NK cells, mostly CD16 (FCGR3A). To address whether inhibiting STAT SUMOylation alters CD16 expression in the surface of NK cells, freshly isolated NK cells were treated with either IL-15, HODHBt or a combination of both for 48 hours and surface expression of CD16 was measured by flow cytometry.
Since IL-15 activated STATs, it was hypothesized that STATs, and in particular STAT1, was controlling expression of CXCR5 (C—X—C Motif Chemokine Receptor 5) and that inhibiting STAT SUMOylation enhances CXCR5 expression and promotes migration towards a CXCL13 (C—X—C Motif Chemokine Ligand 13) gradient. CXCL13 controls homing of lymphocytes to follicles in lymph nodes; however whether this mechanism of regulation exists in human NK cells and whether IL-15 controls expression were unknown. To address which one of the two scenarios was potentially playing a role in the presence of NK cells within the follicles, human NK cells were treated with IL-15, HODHBt or a combination of both for 48 hours. Surface expression of CXCR5 and viability were next measured by flow cytometry.
To phenotype the cells, 1×10^5 cells were stained with a viability dye (Fixable Viability Dye eFluor 450, Affymetrix, eBioscience, San Diego, CA) and the surface marker-specific mAb specific for human: PE-anti-CD25 (Caltag, Burlingame, CA) and PE-anti-CD69 (Caltag, Burlingame, CA) followed by flow cytometric analysis in a BD FACScanto II flow cytometer using the FACSDiva software (Becton Dickinson, Mountain View, CA) and analyzed using FlowJo (Tree Star Inc., Ashland, OR).

Series [1] relates to primary human CD4 T cells. Description: Viability of primary CD4 T cells in the screening. Format: cell-based. The following applies: at the concentration tested. As to the method:
It was observed that the ability of different benzotriazole and benzotriazin derivatives to increase STAT5 phosphorylation correlated with the ability of the compounds to induce the expression of CD69 (a STAT5 target gene) (FIG. 2A) but not CD25 (FIG. 2B) in the surface of human CD4 T cells. Based on these findings, a primary cell screening assay was set up according to FIG. 2C to identify derivatives with similar activity. As an example, flow cytometry was performed to isolated activated cells (FIG. 2D), which were expanded in the presence of DMSO or a compound of interest (FIG. 2E), and screened for changes in the expression of CD69 (FIG. 2F).

Consider IL-15: interleukin-15 (IL-15), cytokine, for which, in the series with K562, the “killing of K562 by pretreated NK cells” value is reported as “induced increase killing of K562 over a 4-hour period”. In the series on NK cells, the “surface expression of CD69 on NK cells” value was “induced the surface expression of CD69” and the “surface expression of CXCR5 on NK cells” value is “induced surface expression of CXCR5”. Also, the “expression of Granzyme A, Perforin, Granulysin, TRAIL and FASL in NK cells” value with NK cells (6 male and 6 female donors) is reported as “induced the expression of all these genes”. For the same molecule, the “expression of GZMB in NK cells” value in the series with NK cells (vs media control) is on record as “increased the expression of GZMB”.

Turning to `CC(C)(C)OC(=O)NCc1ccc(C(=O)On2nnc3ccccc3c2=O)cc1` [BIN024], in series [1], the “toxicity / viability of primary CD4 T cells” value is “high levels of toxicity”.
